According to patent US20230348473A1, “SUBSTITUTED PYRIDINES AS PARP1 INHIBITORS” (Xinthera, Inc., priority 2022, published 2023):
pEC50, pIC50: −log10 of the molar value.

Assays:
PARP1 = PARP1 (Homo sapiens (Human), UniProt P09874); assay: Biochemical fluorescence polarization (FP) assay, PARPi-FL displacement, PARP1; format: binding; details: 20 nM protein, 3 nM PARPi-FL, 4 h
Description: (§1) To characterize our compounds, we utilized an assay measuring the displacement of a commercially available fluorescently labeled PARP 1/2 inhibitor (PARPi-FL, Tocris Biosciences, #6461) as exemplified in assays performed in WO2014/064149 and WO2021/013735A1. The assay was performed utilizing the following method: Compounds were dissolved in DMSO an Echo550 liquid handler was utilized to make serial dilations in the desired concentration range in Optiplate-384F plates. 100% DMSO was used for the high (with protein) and low (without protein) control samples. 20 nL of compound or DMSO alone was added to individual assay plate wells. […] The PARPi-FL was then added at a final concentration of 3 nM. The assay plate is centrifuged at 1000 rpm for 1 min and incubated for 4 h at room temperature. […] XLFit (equation 201) is used to calculate a reported IC50 for each compound.

[1] = In vivo determination of rat Kp,uu; details: male Sprague-Dawley rats, oral gavage, Kp*(fraction unbound in brain homogenate/fraction unbound in plasma)
Description: The equilibrium dialysis method was used to investigate the in vitro binding of test articles and reference compounds to plasma proteins. Plasma samples containing 5 μM test article or blank dialysis buffer solution (PBS, pH 7.4) were added to separate chambers of the dialysis wells of the High Throughput equilibrium Dialysis (HTD) device. The dialysis plate was sealed and placed in an incubator at 37° C. with 5% CO2 with shaking at approximately 100 rpm for 6 hours. All experiments were performed in duplicable. Ketoconazole (5 μM) was used as the reference compound. After incubation, the seal was removed, and 50 μL of post-dialysis samples were pipetted from both buffer and plasma chambers into fresh 96-well plates. Samples were equimatrilyzed by either addition of blank plasma to buffer samples or the addition of blank buffer to plasma samples. Subsequently, 400 μL (4 volumes) of acetonitrile containing internal were added to all samples to precipitate proteins prior to analysis by UPLC-MS/MS to determine the relative concentrations of test articles. The unbound fractions in plasma were calculated using the concentrations of test articles in buffer and plasma samples according to the following equation: […]
The equilibrium dialysis method was used to investigate the in vitro binding of test articles and reference compounds to rodent brain homogenate. Brains collected from naïve animals were weighed and homogenized in 4 volumes of PBS, pH 7.4. […] The unbound fractions in diluted brain homogenate were calculated using the concentrations of test articles in buffer and homogenate samples according to the following equation: […]
Prior to bioanalysis, plasma and brain samples were extracted with 4 volumes of acetonitrile containing internal standard and centrifuged for 15 minutes. […] Plasma and brain homogenate drug concentrations were determined against calibration curves generated by spiking blank rat plasma or brain homogenate with drug across an appropriate concentration range. […]

PARP2 = PARP2 (Homo sapiens (Human), UniProt Q9UGN5); assay: Biochemical fluorescence polarization (FP) assay, PARPi-FL displacement, PARP2; format: binding; details: 20 nM protein, 3 nM PARPi-FL, 4 h
PARP2, sequence (Q9UGN5 whole entry): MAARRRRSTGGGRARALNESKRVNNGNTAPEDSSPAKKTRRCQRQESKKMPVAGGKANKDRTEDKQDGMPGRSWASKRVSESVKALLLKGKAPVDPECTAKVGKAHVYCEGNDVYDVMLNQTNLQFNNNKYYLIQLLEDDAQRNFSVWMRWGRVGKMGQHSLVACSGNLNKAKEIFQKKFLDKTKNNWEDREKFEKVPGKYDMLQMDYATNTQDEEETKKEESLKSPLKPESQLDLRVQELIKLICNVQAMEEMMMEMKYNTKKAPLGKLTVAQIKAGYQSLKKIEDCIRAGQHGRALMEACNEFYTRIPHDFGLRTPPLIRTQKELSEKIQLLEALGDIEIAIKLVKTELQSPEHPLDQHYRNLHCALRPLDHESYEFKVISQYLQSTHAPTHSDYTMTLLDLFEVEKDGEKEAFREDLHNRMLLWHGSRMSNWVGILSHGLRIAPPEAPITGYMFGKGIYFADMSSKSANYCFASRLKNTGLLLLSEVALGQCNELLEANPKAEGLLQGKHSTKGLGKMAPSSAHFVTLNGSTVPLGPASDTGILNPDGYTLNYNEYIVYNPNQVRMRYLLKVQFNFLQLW
Description: as §1

[2] = HLM metabolic stability, predicted human hepatic clearance; format: in vitro ADME; details: well-stirred model, 1 μM
Description: Working stocks of individual test articles were prepared at a concentration of 100 μM by diluting 10 mM stocks prepared in DMSO 100-fold (v:v) into ACN. Thawed hepatic microsomes were suspended in 100 mM potassium phosphate buffer, pH 7.4 to a microsomal protein concentration of 0.562 mg/mL. Diluted microsomes were combined with a solution of 10 mM NADPH, and the mixture was pre-warmed to 37° C. for 8 min. Reactions were initiated by addition of the test article working stocks to achieve a final test article concentration of 1 μM. Final microsomal protein and NADPH concentrations were 0.5 mg/mL and 1 mM, respectively. Incubations containing NADPH were run in duplicate. Test article losses mediated by non-CYP mechanisms were evaluated in a parallel set of incubations run in the absence of NADPH. Incubations lacking NADPH consisted of 1 replicate per test article. Following incubation in a 37° C. water bath, aliquots of individual reactions were quenched with cold ACN containing internal standards at […], 15-, 30-, 60-, 90-, and 120-min. Precipitated protein was pelleted via refrigerated centrifugation. Supernatants were diluted into an equal volume of pure water and mixed well prior to analysis via LC-MS/MS. In vitro intrinsic clearances (CLint) in μL/min/mg were determined for each incubation from calculated in vitro half-lives determined using a standard log-linear regression approach. In vitro CLint values were scaled up using the following physiological scaling factors: 40 mg microsomal protein/g human liver and 25.7 g human liver/kg body weight.

[3] = hHEP metabolic stability, predicted human hepatic clearance; format: in vitro ADME; details: well-stirred model, 1 μM
Description: Working stocks of individual test articles were prepared at concentrations of 100 μM by diluting 10 mM stocks prepared in DMSO 100-fold (v:v) into ACN/H2O (50/50, v:v). Human cryopreserved hepatocytes were thawed in a 37° C. water bath in <2 min., suspended in thawing media, and then centrifuged at 100×g for 10 min. Thawing media was aspirated, and pelleted hepatocytes were resuspended into incubation media at 1.5×10^6 cells/mL. Cell viability was determined using an Acridine Orange/Propidium Iodine stain, and hepatocytes were further diluted with incubation media to 0.5×10^6 viable cells/mL. Hepatocyte aliquots of 198 μL were added to wells of a 96-well plate, and test article incubations were initiated by the addition of 2 μL of 100 μM working stocks. Plates were incubated at 37° C. in a 5% CO2 atmosphere at 95% relative humidity on an orbital shaker at 300 rpm. Incubations were performed in duplicate. Following incubation, aliquots of individual reactions were terminated by addition of ACN containing internal standards at 0, 30-, 60-, 90-, 120-, and 240-min. Precipitated protein was pelleted via refrigerated centrifugation. Supernatants were diluted into an equal volume of pure water and mixed well prior to analysis via LC-MS/MS. In vitro intrinsic clearances (CLint) in μL/min/10^6 cells were determined for each incubation from calculated in vitro half-lives determined using a standard log-linear regression approach. In vitro CLint values were scaled up using the following physiological scaling factors: 99×10^6 cells/g human liver and 25.7 g human liver/kg body weight.

[4] = Caco-2 bidirectional permeability; format: in vitro ADME; details: human, 5 μM, 2 hours
Description: Following a 1-hr. equilibration period in cell culture medium maintained at 37° C. in an incubator containing a 5% CO2 atmosphere at 95% relative humidity, Corning 96-well HTS Transwell® permeable support plates were seeded with 34,300 Caco-2 cells (ATCC) per well. Following seeding, plates were cultured for 14-18 days with cell culture medium replacement every other day beginning no later than 24 hr. after plating. Monolayer barrier integrity was monitored during the culture period using transepithelial electrical resistance (TEER) measurements taken with a Millicell Epithelial Volt-Ohm system. Caco-2 monolayers were considered ready for use when the TEER value >230 ohm·cm^2. Working stocks of individual test articles were prepared at a concentration of 5 μM by diluting 1 mM stocks prepared in DMSO into 10 mM HEPES. Prior to conducting the assay, Caco-2 plates were washed twice with prewarmed 10 mM HEPES and then equilibrated in 10 mM HEPES for 30 min. at 37° C. Following equilibration, test article flux was tested bidirectionally (in both the apical-to-basolateral and basolateral-to-apical directions) by adding test article working stocks to either the apical or basolateral chambers. Blank 10 mM HEPES was added to the opposite sides. Plates were then incubated at 37° C. for 2 hours. At the end of the incubation, aliquots from both sides of each monolayer were quenched with 4 volumes of ACN containing internal standards. Following a centrifugation step, supernatants were diluted with pure water prior to analysis via LC-MS/MS.
Apparent permeability (Papp, ×10^−6 cm/s) was calculated for all transport assays using the following equation: […]
Where: Papp is apparent permeability (×10^−6 cm/s). • dQ/dt is the rate of drug transport (pmol/s). • A is the surface area of the membrane (cm^2). • D0 is the initial donor concentration (nM; pmol/cm^3).
Efflux ratio was determined by calculating the ratio of the Papp in the basolateral-to-apical direction to the Papp in the apical-to-basolateral direction using the following equation: […]
Where: Papp (B-to-A) is the apparent permeability in the basolateral-to-apical direction. • Papp (A-to-B) is the apparent permeability in the apical-to-basolateral direction.

DLD-1 parental cells = assay: Cell growth inhibition assay (CellTiter-Glo), DLD-1 parental; format: cell-based; details: Homo sapiens, DLD-1, 168 h; 7 days, CellTiter Glo 2.0
From the text: The objective of this study is to evaluate the effect of compound disclosed herein on cell proliferation through the cell viability assay in DLD-1 BRCA2(−/−) and parental isogenic pair and MDA-MB-436 (mutated BRCA1) cell lines. The CellTiter-Glo (CTG) based cell viability assay is designed to determine the number of viable cells in the culture because of compound effect, by quantifying ATP, which indicates the presence of metabolically active cells.
DLD-1 BRCA2(−/−) and parental isogenic pair were cultured in RPMI 1640 supplemented with 10% fetal bovine serum (FBS), and MDA-MB-436 cells were cultured in DMEM supplemented with 10% FBS. Both are culture at 37° C. with 5% CO2. Invention compounds were distributed to the 384 well plate (Corning, 3764) using Echo acoustic liquid handler to form a 1:3 serially diluted final concentration with top dose of 10 or 30 μM. The cells were seeded into the plate in the density of 50 cells/well (DLD-1 parental), 200 cells/well (DLD-1 BRCA2−/−), or 500 cells/well (MDA-MB-436). After a short spun, the cells were cultured in a well moisturized incubator at 37° C. with 5% CO2 for 7 days without disturbance. The cell viability was measured by CellTiter Glo 2.0 assay kit (Promega, G9243), and growth inhibition rate was calculated and plotted against final compound concentration, and the data were fitted in Xfit to generate IC50.

PARP1, sequence (P09874 whole entry): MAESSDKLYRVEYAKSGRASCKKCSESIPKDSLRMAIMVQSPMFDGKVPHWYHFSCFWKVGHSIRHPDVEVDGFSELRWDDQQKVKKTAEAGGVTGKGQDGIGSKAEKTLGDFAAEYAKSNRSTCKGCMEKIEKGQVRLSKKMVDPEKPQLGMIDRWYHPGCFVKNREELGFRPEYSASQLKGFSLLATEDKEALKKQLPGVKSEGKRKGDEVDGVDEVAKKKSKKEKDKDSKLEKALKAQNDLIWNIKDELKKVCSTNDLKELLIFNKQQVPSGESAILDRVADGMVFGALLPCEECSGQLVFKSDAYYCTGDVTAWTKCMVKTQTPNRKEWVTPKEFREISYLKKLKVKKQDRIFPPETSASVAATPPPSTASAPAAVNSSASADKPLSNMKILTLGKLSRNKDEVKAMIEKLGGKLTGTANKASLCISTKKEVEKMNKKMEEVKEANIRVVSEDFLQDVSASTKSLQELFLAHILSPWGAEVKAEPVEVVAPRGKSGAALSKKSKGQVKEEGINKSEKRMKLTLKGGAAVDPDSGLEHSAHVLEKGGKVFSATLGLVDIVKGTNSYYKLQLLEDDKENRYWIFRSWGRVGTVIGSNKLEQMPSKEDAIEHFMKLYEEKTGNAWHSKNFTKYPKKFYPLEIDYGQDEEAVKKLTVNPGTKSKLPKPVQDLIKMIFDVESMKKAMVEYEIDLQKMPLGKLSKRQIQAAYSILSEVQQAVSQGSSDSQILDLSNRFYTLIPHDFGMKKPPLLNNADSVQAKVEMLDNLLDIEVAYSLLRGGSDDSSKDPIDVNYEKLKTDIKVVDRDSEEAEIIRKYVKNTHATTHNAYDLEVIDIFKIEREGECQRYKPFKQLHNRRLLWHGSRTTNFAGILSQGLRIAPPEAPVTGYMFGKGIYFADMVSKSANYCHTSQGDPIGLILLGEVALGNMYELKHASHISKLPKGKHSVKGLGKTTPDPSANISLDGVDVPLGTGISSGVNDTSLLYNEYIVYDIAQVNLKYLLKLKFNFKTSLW

CNC(=O)c1ccc(N2CCN(Cc3ccc4c([nH]c(=O)c5ccnn54)c3F)CC2)c(F)n1 [Example 1, 6-fluoro-5-[4-({6-fluoro-4-oxo-5H-pyrazolo[1,5-a]quinoxalin-7-yl}methyl)piperazin-1-yl]-N-methylpyridine-2-carboxamide]
pIC50 (PARP1): 8.09
Rat Kpuu [1]: 1.0
pIC50 (PARP2): < 4.00

CNC(=O)c1ccc(N2CCN(Cc3ccc4c5c(c(=O)[nH]c4c3F)CCO5)CC2)c(F)n1 [Example 9, 6-fluoro-5-[4-({6-fluoro-4-oxo-2H,3H,5H-furo[3,2-c]quinolin-7-yl}methyl)piperazin-1-yl]-N-methylpyridine-2-carboxamide]
HLM Clh [2]: <4 mL/min/kg
HHEP Clh [3]: <3.3 mL/min/kg
Papp A→B at 2 h, 5 μM ([4]; apical-to-basolateral, read-out: Caco-2 AB): 20.5 ×10⁻⁶ cm/s
Papp B→A at 2 h, 5 μM ([4]; basolateral-to-apical, read-out: Caco-2 BA): 28.1 ×10⁻⁶ cm/s
Rat Kpuu [1]: 0.65

[2H]C([2H])([2H])NC(=O)c1ccc(N2CCN(Cc3ccc4c5c(c(=O)[nH]c4c3F)CCO5)CC2)c(F)n1 [Example 22]
pEC50 (DLD-1 parental cells): < 4.52

[2H]C([2H])(c1ccc2c3c(c(=O)[nH]c2c1F)CCO3)N1CCN(c2ccc(C(=O)NC)nc2F)CC1 [Example 24]
Rat Kpuu [1]: 0.81
